Test system: P. berghei ANKA GFP
Type: in vivo, C57BL/6 mice
Settings: treated twice daily days 2-3; observed from about day 5 to day 8 of infection
Experimental: It has previously been shown that administration of CO by inhalation protects P. berghei ANKA infected C57BL/6 mice from developing ECM (see, e.g., Pamplona et al. Nat Med (2007) 13:703-710). The inventors questioned whether CO-RMs could mimic the protection conferred by CO inhalation in P. berghei ANKA infection. To this end, a known ruthenium CORM, Ru(CO)3Cl2, also referred to herein as CORM-2, was tested on different schedules of treatment and doses in P. berghei ANKA infected C57BL/6 mice (data not shown).
Red blood cells infected with green fluorescent protein (GFP)-transgenic P. berghei ANKA and P. berghei ANKA was used to infect mice (see, e.g., Franke-Fayard et al. Mol Biochem Parasitol (2004) 137:23-33). Cryopreserved parasites were passed once through C57BL/6 or DBA-2 mice before being used to infect experimental animals. C57BL/6 or DBA-2, 6- to 8-wk-old mice (sex matched in each experiment) were infected by intra-peritoneal (i.p.) injection of 10^6 infected RBCs. The infected mice were monitored daily for clinical symptoms of experimental cerebral malaria (ECM) including hemi- or paraplegia, head deviation, tendency to roll over on stimulation, ataxia and convulsions, or ALI, including dyspnea. Mice showing severe signs of ECM at day 5, 6 or 7 post-infection (p.i.) and ALI between days 7 and 9 were sacrificed. Parasitemia was assessed by flow cytometry for mice infected with GFP-expressing P. berghei ANKA, using tail blood, as previously described (see, e.g., Pamplona et al., Nat Med (2007) 13:703-710). Mean parasitemia is expressed as percentage of infected red blood cells. For mice infected with non-GFP P. berghei parasitemia was assessed daily by microscopic counting of Giemsa-stained thin blood smears. Mean parasitemia is expressed as percentage of infected red blood cells. Survival is expressed as percentage.
In order to evaluate the clinical presentation of experimental cerebral malaria, a classification was used in clinical stages from 0 to 4 (see, e.g., Bienvenu et al., Acta Trop (2008) 106:104-8; Franklin et al., Proc Natl Acad Sci USA (2011) 108:3689-94). Briefly, stage 0 indicates no detectable clinical symptoms, stage 1, ruffled fur; stage 2, ruffled fur and unbalancing; stage 3, limb paralysis and respiratory distress and stage 4, convulsions, coma or death. The mice were clinically classified before and after the treatment to evaluate the clinical recovery.
CORM-2 (Sigma-Aldrich) and Compound 2 were solubilized using 10% dimethyl sulfoxide (DMSO; Sigma-Aldrich) in PBS. CORM-3 and Compound 1 were solubilized in PBS (lx). CORM-2 solution (20 mg/kg of body weight) was administered intravenously (i.v.) according to the chosen schedules. […] As vehicle control, we used a solution of 10% DMSO in PBS administered i.v. The concentrations of CORM-2 used in the present study were based on previous reports (see, e.g., Chen et al. Am. J. Pathol. (2009) 175:422-429; Sun et al., World. J. Gastroenterol. (2008) 14:547-553). Artesunate is presented as a powder of artesunic acid. Artesunate (AS) solution was prepared by dissolving 60 mg of anhydrous artesunic acid in 1 ml of sodium bicarbonate (5%) to form sodium artesunate and then diluted in 5 ml of NaCl (0.9%). An AS solution (i.p.) was administered at 40 mg/Kg/day, as described previously (see, e.g., Bienvenu, Acta Trop (2008) 106:104-108). The AS treatment was started when the infected non-treated mice presented the clinical stage 1 for experimental cerebral malaria.

SMILES: C[SH]([C@@H]1OC(CO)[C@H](O)[C@H](O)C1O)[Ru]([Cl])([Cl])([CH]=O)([CH]=O)[CH]=O (stereo partly shown) [Compound 1, Tricarbonyldichloro(methylthiogalactopyranoside) Ru(II)]
- effect on parasitemia: small but significant arrest in parasitemia

Source: patent US9611286B2, “Ruthenium carbon monoxide releasing molecules and uses thereof” (Alfama, Inc., priority 2011, dated 2017)
